From patent publication US10758512B2 (KOREA INSTITUTE OF SCIENCE AND TECHNOLOGY, priority 2016, dated 2020)

Columns and labels:
[1] = system: dihydrotestosterone production in prostate cell DU145; assay: Dihydrotestosterone production-inhibitory activity in prostate cells (LC-MS/MS); type: cell-based, human; details: 48 hours
Procedure: CWR-22Rv1, LNCaP, DU145, and PC-3 cells which are human prostate cancer cell lines were cultured and maintained in an RPMI medium (Roswell Park Memorial Institute medium) supplemented with 10% heat-inactivated fetal bovine serum (FBS), 10 U/mL penicillin, and 100 μg/mL streptomycin under conditions of 5% carbon dioxide and 37° C. The internal standard compound was dissolved in dimethyl sulfoxide at a concentration of 10 μM, and 1 μL thereof was added to 150 μL of cell culture, and treated to a cartridge to perform sample pretreatment. […] Thereafter, re-solvation was performed by using 50% aqueous methanol, and products were kept frozen at −20° C. Mass spectrometry of the stored samples was performed by using an AB SCIEX API 4000 QTRAP tandem quadrupole mass spectrometer. HPLC system used herein was Agilent 1200 pump, and solvent A was water/acetonitrile (95:5 v/v, 0.1% formic acid), and solvent B was acetonitrile/water (95:5 v/v, 0.1% formic acid). For chromatography separation, a linear gradient from 40% B solvent to 100% B solvent in 8 minutes was used. An analysis column used herein was an XTerra MS C18 column (2.1 mm×150 mm, 3.5 μm) of Waters corporation, and analysis was performed while maintaining temperature at 25° C. and a flow rate of 0.2 mL/min. […]

DU145 cells = assay: Cell viability of human prostate cell line (EZCytox); type: cell-based; details: 48 hours, relative to DMSO control (FIG. 4)
Procedure: With regard to the human prostate cancer cell line DU145 cultured and maintained in Experimental Example 1, the culture medium and prostate cell culture were mixed, and 1×10^4 cells were seeded in a 96-well plate, and then cultured for 24 hours under conditions of 5% carbon dioxide and 37° C.
After being stabilized, the cells were treated with only 0.2% dimethyl sulfoxide as a control group, treated with testosterone (100 ng/mL or 200 ng/mL) alone, or treated with testosterone and 10 μM finasteride as a positive control, or testosterone and 1 μM, 10 μM, or 20 μM fucoxanthin, and then cultured for 48 hours.
Thereafter, the media were collected for LC-MS/MS analysis, and then cell viability of prostate cells was measured in order to examine whether treatment of the compound influences growth of the prostate cells. The cell viability was determined by measuring absorbance at 450 nm after adding an EZCytox reagent (Daeil Lab Service, Korea) and culturing for 1-4 hours under conditions of 5% carbon dioxide and 37° C. The cell viability was calculated as a percentage relative to cell viability of the control group treated with dimethyl sulfoxide (DMSO) only.

Structure (SMILES) | dihydrotestosterone production ([1]; DU145, testosterone 100 ng/mL plus finasteride 10 μM, vs testosterone alone (FIG. 3)) | cell viability of prostate cells (DU145 cells; DU145, testosterone plus finasteride 10 μM) | dihydrotestosterone production ([1]; DU145, testosterone 100 ng/mL plus fucoxanthin 1 μM, 10 μM, 20 μM, vs testosterone alone, inhibition increased with concentration (FIG. 3)) | cell viability of prostate cells (DU145 cells; DU145, testosterone plus fucoxanthin 1 μM, 10 μM or 20 μM)
CC(C)(C)NC(=O)[C@H]1CC[C@H]2[C@@H]3CC[C@H]4NC(=O)C=C[C@]4(C)[C@H]3CC[C@]12C [finasteride] | remarkably inhibited | did not influence cell viability | – | –
CC(=O)O[C@H]1CC(C)(C)C(=C=C/C(C)=C/C=C/C(C)=C/C=C/C=C(C)/C=C/C=C(\C)C(=O)C[C@@]23O[C@]2(C)C[C@@H](O)CC3(C)C)[C@](C)(O)C1 [fucoxanthin] | – | – | remarkably inhibited | did not influence cell viability
